Experimental data reported in ChEMBL document CHEMBL4630901 (2021).

Assays:
Details in all cases: Compound concentration 10.0 uM
[1] = target: T1, GABA-A receptor; anion channel (Rattus norvegicus) (UniProt O09028+P15431+P18506+P18508+P19969+P20236+P23574+P23576+P28471+P28473+P30191+P62813+P63079+P63138+Q91ZM7+Q9ES14)
[2] = target: D(2) dopamine receptor (Homo sapiens) (UniProt P14416)
[3] = target: D(1B) dopamine receptor (Homo sapiens) (UniProt P21918)
[4] = target: D(4) dopamine receptor (Homo sapiens) (UniProt P21917)
[5] = target: D(1A) dopamine receptor (Homo sapiens) (UniProt P21728)
[6] = target: T2, Alpha-2C adrenergic receptor (Homo sapiens) (UniProt P18825)
T2 sequence (whole entry): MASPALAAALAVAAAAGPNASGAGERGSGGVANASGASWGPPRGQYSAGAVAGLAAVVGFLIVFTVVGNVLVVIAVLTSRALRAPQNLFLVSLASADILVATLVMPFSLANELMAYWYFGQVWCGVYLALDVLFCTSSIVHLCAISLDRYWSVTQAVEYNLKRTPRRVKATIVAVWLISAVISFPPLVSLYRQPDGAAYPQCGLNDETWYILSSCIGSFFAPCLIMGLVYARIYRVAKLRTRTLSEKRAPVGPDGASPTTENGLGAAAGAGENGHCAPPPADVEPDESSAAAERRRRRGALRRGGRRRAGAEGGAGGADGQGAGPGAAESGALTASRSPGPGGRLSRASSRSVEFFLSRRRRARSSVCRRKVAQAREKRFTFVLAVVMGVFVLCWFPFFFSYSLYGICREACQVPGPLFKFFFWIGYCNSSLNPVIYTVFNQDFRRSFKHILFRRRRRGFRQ

[7] = target: T3, Alpha-1A adrenergic receptor (Homo sapiens) (UniProt P35348)
T3 sequence (whole entry): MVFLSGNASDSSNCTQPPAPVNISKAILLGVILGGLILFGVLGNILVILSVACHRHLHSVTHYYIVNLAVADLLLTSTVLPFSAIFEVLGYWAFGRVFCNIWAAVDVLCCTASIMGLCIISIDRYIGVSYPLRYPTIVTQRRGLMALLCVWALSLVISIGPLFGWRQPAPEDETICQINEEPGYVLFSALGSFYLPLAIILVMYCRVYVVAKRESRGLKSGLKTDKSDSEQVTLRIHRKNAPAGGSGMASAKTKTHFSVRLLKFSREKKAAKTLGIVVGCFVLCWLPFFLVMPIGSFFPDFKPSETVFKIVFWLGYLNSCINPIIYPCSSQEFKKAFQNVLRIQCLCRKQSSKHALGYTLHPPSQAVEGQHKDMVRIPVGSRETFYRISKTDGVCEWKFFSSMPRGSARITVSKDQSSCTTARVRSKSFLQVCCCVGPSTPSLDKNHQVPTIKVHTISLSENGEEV

[8] = target: Muscarinic acetylcholine receptor M3 (Homo sapiens) (UniProt P20309)
[9] = target: 5-hydroxytryptamine receptor 1B (Homo sapiens) (UniProt P28222)
[10] = target: Beta-1 adrenergic receptor (Homo sapiens) (UniProt P08588)
[11] = target: T4, 5-hydroxytryptamine receptor 2C (Homo sapiens) (UniProt P28335)
T4 sequence (whole entry): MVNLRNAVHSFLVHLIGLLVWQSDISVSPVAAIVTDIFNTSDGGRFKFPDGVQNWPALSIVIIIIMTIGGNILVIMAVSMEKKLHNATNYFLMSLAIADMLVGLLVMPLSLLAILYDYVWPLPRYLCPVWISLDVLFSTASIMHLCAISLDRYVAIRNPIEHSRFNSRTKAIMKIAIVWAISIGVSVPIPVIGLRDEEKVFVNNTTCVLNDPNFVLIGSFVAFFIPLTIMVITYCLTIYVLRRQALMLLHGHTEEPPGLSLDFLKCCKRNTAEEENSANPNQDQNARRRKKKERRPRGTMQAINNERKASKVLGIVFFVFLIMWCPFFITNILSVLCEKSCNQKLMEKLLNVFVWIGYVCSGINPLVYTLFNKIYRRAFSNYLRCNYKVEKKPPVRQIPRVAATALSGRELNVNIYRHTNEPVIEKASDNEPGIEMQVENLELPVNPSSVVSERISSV

[12] = target: T1, GABA-A receptor; anion channel (Rattus norvegicus); remark: listed apart in the source
[13] = target: 5-hydroxytryptamine receptor 7 (Homo sapiens) (UniProt P34969)
[14] = species: Rattus norvegicus
[15] = target: Histamine H1 receptor (Homo sapiens) (UniProt P35367)
[16] = target: T5, Muscarinic acetylcholine receptor M1 (Homo sapiens) (UniProt P11229)
T5 sequence (whole entry): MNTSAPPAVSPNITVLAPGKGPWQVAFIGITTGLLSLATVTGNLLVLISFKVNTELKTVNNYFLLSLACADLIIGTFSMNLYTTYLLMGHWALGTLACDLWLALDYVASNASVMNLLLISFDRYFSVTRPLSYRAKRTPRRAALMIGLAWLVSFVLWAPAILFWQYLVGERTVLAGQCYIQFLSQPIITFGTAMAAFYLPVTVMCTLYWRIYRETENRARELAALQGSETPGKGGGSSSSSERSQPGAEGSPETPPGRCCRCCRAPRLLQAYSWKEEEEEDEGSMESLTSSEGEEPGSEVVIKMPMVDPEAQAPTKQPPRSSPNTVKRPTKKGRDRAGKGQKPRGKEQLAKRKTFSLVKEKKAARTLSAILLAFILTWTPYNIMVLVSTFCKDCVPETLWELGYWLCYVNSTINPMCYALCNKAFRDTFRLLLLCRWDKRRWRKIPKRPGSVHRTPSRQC

[17] = target: Delta-type opioid receptor (Homo sapiens) (UniProt P41143)
[18] = target: Sigma intracellular receptor 2 (Homo sapiens, UniProt Q5BJF2)
[19] = target: Kappa-type opioid receptor (Homo sapiens) (UniProt P41145)
Chain of Kappa-type opioid receptor (Homo sapiens) (P41145 whole entry): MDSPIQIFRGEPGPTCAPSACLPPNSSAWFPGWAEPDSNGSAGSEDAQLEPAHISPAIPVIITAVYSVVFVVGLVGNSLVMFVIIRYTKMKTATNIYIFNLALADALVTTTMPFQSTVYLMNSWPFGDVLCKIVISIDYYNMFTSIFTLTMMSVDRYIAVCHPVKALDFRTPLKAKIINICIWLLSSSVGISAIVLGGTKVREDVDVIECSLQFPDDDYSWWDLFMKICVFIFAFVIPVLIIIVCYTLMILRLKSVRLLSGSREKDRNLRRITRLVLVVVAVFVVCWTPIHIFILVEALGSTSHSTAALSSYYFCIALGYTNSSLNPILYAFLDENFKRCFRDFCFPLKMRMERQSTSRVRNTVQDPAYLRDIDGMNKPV

Chain of Muscarinic acetylcholine receptor M3 (Homo sapiens) (P20309 whole entry, looked up): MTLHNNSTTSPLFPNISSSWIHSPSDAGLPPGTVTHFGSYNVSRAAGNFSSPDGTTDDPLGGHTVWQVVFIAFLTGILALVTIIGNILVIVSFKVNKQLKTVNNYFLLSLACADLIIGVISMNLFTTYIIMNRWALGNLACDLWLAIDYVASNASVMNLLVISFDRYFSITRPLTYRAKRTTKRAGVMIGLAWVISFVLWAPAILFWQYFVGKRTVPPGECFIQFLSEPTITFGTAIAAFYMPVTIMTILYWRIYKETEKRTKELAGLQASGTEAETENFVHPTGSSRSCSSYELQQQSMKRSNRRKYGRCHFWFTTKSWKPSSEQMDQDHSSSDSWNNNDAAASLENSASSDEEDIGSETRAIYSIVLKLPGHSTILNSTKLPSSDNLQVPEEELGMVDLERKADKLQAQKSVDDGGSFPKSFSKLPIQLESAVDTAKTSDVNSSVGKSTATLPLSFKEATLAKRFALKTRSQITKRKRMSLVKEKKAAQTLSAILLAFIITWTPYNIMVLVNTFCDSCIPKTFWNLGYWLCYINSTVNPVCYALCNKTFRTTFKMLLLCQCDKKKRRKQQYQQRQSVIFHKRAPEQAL
Chain of D(2) dopamine receptor (Homo sapiens) (P14416 whole entry): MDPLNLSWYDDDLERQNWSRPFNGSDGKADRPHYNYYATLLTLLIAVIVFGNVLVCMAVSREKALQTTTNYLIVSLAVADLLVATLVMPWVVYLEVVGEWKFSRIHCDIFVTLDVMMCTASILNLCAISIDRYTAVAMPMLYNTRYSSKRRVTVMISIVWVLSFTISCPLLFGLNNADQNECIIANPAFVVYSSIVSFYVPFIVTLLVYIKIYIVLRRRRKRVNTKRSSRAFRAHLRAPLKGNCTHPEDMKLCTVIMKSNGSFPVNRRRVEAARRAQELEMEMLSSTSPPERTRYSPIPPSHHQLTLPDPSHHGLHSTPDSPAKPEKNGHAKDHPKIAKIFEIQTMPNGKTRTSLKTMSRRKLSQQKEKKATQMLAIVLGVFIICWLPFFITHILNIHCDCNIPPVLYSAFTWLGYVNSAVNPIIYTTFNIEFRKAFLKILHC
Chain of Histamine H1 receptor (Homo sapiens) (P35367 whole entry): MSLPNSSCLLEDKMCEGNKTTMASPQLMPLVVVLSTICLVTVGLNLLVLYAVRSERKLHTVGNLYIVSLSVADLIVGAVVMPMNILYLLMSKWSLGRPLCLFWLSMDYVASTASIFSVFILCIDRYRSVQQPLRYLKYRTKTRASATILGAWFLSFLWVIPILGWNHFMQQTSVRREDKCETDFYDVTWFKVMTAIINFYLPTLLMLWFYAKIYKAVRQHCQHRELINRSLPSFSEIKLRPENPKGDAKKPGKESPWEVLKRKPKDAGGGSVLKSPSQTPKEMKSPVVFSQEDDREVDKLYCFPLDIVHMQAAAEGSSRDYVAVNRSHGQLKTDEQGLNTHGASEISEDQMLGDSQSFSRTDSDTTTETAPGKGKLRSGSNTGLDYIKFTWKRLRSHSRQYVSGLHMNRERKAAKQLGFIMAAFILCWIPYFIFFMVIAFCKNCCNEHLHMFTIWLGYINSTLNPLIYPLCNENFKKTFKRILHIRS
Chain of Delta-type opioid receptor (Homo sapiens) (P41143 whole entry): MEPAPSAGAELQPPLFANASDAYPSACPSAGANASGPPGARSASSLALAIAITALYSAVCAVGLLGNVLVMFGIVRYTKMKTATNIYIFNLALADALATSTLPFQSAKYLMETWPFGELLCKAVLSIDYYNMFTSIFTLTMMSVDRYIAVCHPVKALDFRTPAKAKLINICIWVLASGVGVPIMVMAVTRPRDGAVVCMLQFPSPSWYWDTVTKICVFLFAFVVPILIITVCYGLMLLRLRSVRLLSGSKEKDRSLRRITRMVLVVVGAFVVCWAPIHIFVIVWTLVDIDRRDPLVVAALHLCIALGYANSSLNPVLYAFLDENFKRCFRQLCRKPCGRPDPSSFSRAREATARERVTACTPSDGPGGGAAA
Chain of 5-hydroxytryptamine receptor 1B (Homo sapiens) (P28222 whole entry): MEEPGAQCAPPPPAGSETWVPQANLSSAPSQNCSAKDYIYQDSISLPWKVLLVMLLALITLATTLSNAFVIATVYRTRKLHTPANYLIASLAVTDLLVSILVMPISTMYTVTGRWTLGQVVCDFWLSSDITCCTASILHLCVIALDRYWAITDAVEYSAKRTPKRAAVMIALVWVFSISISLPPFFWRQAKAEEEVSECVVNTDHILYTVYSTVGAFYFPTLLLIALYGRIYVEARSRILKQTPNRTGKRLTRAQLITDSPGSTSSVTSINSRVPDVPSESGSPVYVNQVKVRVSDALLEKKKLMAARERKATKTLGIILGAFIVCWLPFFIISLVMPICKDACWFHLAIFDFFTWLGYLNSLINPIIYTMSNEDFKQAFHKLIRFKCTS
Chain of D(1B) dopamine receptor (Homo sapiens) (P21918 whole entry): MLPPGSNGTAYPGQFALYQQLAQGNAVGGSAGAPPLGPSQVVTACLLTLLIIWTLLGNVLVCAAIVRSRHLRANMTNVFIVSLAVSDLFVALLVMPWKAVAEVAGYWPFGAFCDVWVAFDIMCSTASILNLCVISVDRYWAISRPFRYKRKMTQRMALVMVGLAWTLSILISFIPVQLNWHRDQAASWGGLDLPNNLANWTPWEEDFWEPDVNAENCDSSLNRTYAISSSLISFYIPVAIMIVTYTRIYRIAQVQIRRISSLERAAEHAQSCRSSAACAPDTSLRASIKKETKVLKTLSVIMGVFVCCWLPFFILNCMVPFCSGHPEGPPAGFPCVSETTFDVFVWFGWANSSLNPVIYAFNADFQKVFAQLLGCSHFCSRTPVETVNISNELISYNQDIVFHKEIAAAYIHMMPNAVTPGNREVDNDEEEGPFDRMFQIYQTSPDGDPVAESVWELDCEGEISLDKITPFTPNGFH
Chain of Beta-1 adrenergic receptor (Homo sapiens) (P08588 whole entry, looked up): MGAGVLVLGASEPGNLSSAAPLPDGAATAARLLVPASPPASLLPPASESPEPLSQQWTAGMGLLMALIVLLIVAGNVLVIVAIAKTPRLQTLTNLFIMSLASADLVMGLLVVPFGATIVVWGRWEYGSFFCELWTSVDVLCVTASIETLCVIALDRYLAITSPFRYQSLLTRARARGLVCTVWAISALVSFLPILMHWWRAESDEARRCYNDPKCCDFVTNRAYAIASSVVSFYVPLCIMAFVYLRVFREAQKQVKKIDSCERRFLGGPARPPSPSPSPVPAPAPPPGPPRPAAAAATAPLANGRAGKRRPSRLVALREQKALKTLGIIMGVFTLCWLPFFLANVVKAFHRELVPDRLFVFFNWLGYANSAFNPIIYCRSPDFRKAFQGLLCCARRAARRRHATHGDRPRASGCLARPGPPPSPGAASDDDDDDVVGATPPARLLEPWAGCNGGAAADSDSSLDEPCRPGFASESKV
Chain of Sigma intracellular receptor 2 (Q5BJF2 whole entry): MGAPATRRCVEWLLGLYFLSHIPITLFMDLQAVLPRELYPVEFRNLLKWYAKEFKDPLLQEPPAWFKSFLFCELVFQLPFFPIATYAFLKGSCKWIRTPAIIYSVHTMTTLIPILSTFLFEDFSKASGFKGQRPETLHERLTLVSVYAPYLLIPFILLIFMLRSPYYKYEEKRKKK
Chain of D(1A) dopamine receptor (Homo sapiens) (P21728 whole entry): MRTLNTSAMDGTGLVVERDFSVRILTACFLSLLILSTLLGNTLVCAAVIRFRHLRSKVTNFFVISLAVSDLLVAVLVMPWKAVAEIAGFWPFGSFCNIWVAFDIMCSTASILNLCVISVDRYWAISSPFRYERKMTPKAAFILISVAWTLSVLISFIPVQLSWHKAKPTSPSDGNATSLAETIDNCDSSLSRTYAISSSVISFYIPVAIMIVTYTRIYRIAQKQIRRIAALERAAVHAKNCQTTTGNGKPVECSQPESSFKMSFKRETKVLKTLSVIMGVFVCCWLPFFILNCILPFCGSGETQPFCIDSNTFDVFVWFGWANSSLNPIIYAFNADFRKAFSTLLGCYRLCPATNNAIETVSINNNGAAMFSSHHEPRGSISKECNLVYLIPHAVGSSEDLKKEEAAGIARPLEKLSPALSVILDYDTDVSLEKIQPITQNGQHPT
Chain of D(4) dopamine receptor (Homo sapiens) (P21917 whole entry): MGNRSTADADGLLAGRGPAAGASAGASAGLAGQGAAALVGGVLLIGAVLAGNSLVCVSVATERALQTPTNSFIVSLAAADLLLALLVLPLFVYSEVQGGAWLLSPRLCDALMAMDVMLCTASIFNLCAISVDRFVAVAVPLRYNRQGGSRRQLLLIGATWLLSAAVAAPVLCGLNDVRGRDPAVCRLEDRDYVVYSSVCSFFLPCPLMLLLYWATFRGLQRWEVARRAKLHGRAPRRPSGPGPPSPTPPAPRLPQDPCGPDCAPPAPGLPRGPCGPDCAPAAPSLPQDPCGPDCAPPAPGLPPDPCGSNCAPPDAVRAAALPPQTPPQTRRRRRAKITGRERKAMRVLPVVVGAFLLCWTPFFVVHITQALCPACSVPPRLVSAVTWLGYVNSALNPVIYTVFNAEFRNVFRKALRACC

| Compound | inhibition [1] | inhibition [2] | inhibition [3] | inhibition [4] | inhibition [5] | inhibition [6] | inhibition [7] | inhibition [8] | inhibition [9] | inhibition [10] | inhibition [11] | inhibition [12] | inhibition [13] | inhibition [14] | inhibition [15] | inhibition [16] | inhibition [17] | inhibition [18] | inhibition [19] |
| --- | --- | --- | --- | --- | --- | --- | --- | --- | --- | --- | --- | --- | --- | --- | --- | --- | --- | --- | --- |
| Cc1c(N2CCNCC2)nc2ccc(Br)cc2c1C(=O)NC[C@H](CCC(=O)O)c1ccccc1Cl [BAY-403] | -0.16% | 2.75% | 5.3% | 5.89% | 31.6% | 5.7% | 23.3% | 13.7% | 15.2% | 12.6% | 12.7% | 38.3% | 13% | 20% | 17.5% | 8.42% | 36% | 60% | 17.7% |
| Cc1c(N2CCCC2)nc2ccc(Br)cc2c1C(=O)NC[C@H](CCC(=O)O)c1ccccc1Cl [BAY-6672] | 8.16% | 9.71% | 25% | 1.48% | 13.8% | 16.1% | 1.72% | -0.57% | -2.2% | 15.7% | 2.98% | 5.06% | 0.4% | -2.43% | 4.61% | 14.3% | 15.4% | 8.52% | 15.4% |
